Assay results from patent publication US20080063643A1, “Peptide Derived From Hepatitis C Virus” (priority 2003, published 2008).

Tests used:
[1] = system: peptide-specific IgG in the serum; test: ELISA of peptide-specific IgG in sera of HCV patients and healthy donors (Example 1); assay type: binding, human; conditions: ELISA, cut-off value 1.83; for Healthy donors (n = 10) Positive n: number of 10 healthy donors with serum IgG reactive to the peptide; for HCV patients (n = 12) Positive n: number of 12 HCV patients with serum IgG reactive to the peptide; for Healthy donors (n = 10) Positive %: share of 10 healthy donors with serum IgG reactive to the peptide; for HCV patients (n = 12) Positive %: share of 12 HCV patients with serum IgG reactive to the peptide
Description: Synthetic peptides having an HLA-A2-binding motif or an HLA-A24-binding motif from a conserved region of HCV genotype 1b protein were used in this study (Table 1). A peptide derived from HIV having an HLA-A2-binding motif was used as a negative control. All of these peptides were purchased from a commercially supplier. The purity was analyzed by reverse-phase high-pressure liquid chromatography and found to be 90% or higher.
The level of the peptide-specific IgG in the serum was measured by ELISA. First, each peptide was dissolved in dimethyl sulfoxide (DMSO) and stored at −80° C. The peptide was diluted with 0.1 M sodium carbonate/sodium bicarbonate solution containing disuccinimidyl suberate (DSS) as a crosslinker. An ELISA plate was coated with 20 μg/well of peptide at 4° C. overnight. The wells were washed 3 times with 0.05% Tween 20/PBS (PBST), and the plate was blocked with Block Ace (registered trademark) and left overnight at 4° C. Plasma or serum samples were diluted in 1:100, 1:200 and 1:400 with 0.05% Tween 20/Block Ace, and 100 μl of each of the samples was added to each well. After the samples were incubated at 37° C. for 2 hours, the plate was washed 9 times with PBST, 100 μl of a 1:1000 diluted rabbit anti-human IgG (γ-chain specific) was added to each well, and incubated at 37° C. for 2 hours. The plate was washed 9 times with PBST, and 100 μl of 1:100 diluted mouse anti-rabbit IgG conjugated to a horseradish peroxidase-dextran polymer was added to each well, and then the plate was incubated at room temperature for 40 minutes. After the plate was washed, 100 μl of a tetramethylbenzidine substrate solution was added to each well. The reaction was stopped by the addition of 2.0 M phosphoric acid. The cutoff value was calculated as the mean±3 SD of the optical density values of the control obtained from the healthy donors.
The level of IgG that reacts with each of the 62 types of peptides was measured in the sera from 12 patients infected with HCV and 10 healthy donors (HDs) (Table 1).

[2] = system: peptide-specific IgG; test: ELISA screening of peptide-reactive IgG in plasma of 12 HCV-1b patients and 10 HDs (Example 2); assay type: binding, human; conditions: plasma dilution 1:100; for Reactivity to peptide-specific IgG HD (n = 10): number of 10 HDs above cut-off 0.18 OD; for Reactivity to peptide-specific IgG Patients (n = 12): number of 12 HCV-1b+ patients above cut-off 0.18 OD
Description: Forty-four types of synthetic peptides that were derived from a highly conserved region of HCV-1b protein and selected based on a high binding score to HLA-A24 molecule (Bioinformatics and Molecular Analysis Section, NIH, Bethesda, Md.) were used. A peptide derived from HIV that has an HLA-A24 binding motif ([…] (SEQ ID NO: 63)) served as a negative control. For the screening of the reactivity of peptide to serum IgG, desalted grade of the peptides (>70%) were purchased from BioSynthesis (Lewisville, Tex.) or SynPep (Dublin, Calif.). A purified peptide (>90%) was used in the subsequent experiments. The plasma level of peptide-specific IgG was measured by an enzyme-linked immunosorbent assay (ELISA). The specificity of anti-peptide IgG in a plasma sample was tested by the absorption and elution of peptide-reactive IgG.
In order to screen for a humoral response to the peptides, the level of IgG reactive to each of the 44 types of peptides was assayed in the plasma of 12 patients infected with HCV-1b. The plasma of 10 HDs was used as a negative control. The level of peptide-reactive IgG was measured by ELISA for serially diluted plasma samples and reported by the values of absorbance (OD) of each sample. The cut-off value of these peptides at a plasma dilution of 1:100 was set at 0.18 OD (mean (0.08)+2SD (0.05×2) of 10 HDs). A significant level (>0.18 OD at a plasma dilution of 1:100) of IgG reactive to NS5A-2132, C-176, E2-488, E1-213, C-173 and NS3-1081 peptides were detectable in the plasma of 12, 11, 10, 9, 8 and 5 patients among the 12 patients, respectively (FIG. 9). As expected, none of these peptides was reactive to the plasma from the 10 HDs.

Substance	Healthy donors (n = 10) Positive n [1]	HCV patients (n = 12) Positive n [1]	Healthy donors (n = 10) Positive % [1]	HCV patients (n = 12) Positive % [1]	Reactivity to peptide-specific IgG HD (n = 10) [2]	Reactivity to peptide-specific IgG Patients (n = 12) [2]
26 (AYALYGVWPL; Hepatitis C Virus) [Peptide 26]	0	2	0%	17%	–	–
27 (HYPCTVNFTI; Hepatitis C Virus) [Peptide 27]	0	4	0%	33%	–	–
28 (YYRGLDVSVI; Hepatitis C Virus) [Peptide 28]	0	2	0%	17%	–	–
29 (TFLVGLNQYL; Hepatitis C Virus) [Peptide 29]	0	2	0%	17%	–	–
30 (VFVGLILLTL; Hepatitis C Virus) [Peptide 30]	0	4	0%	33%	–	–
32 (IFLLALLSCL; Hepatitis C Virus) [Peptide 32]	0	7	0%	58%	–	–
33 (NFISGIQYL; Hepatitis C Virus) [Peptide 33]	0	0	0%	0%	–	–
35 (AFTASITSPL; Hepatitis C Virus) [Peptide 35]	0	0	0%	0%	–	–
36 (GYGAGVAGAL; Hepatitis C Virus) [Peptide 36]	0	1	0%	8%	–	–
37 (DFKTWLQSKL; Hepatitis C Virus) [Peptide 37]	0	1	0%	8%	–	–
38 (SFSIFLLALL; Hepatitis C Virus) [Peptide 38]	0	7	0%	58%	–	–
40 (YLLPRRGPRL; Hepatitis C Virus) [Peptide 40]	0	12	0%	100%	–	–
41 (SYTWTGALI; Hepatitis C Virus) [Peptide 41]	0	0	0%	0%	–	–
42 (HYRDVLKEM; Hepatitis C Virus) [Peptide 42]	0	1	0%	8%	–	–
43 (ILHTPGCV; Hepatitis C Virus) [Peptide 43]	0	3	0%	25%	–	–
44 (WFMWCLLLL; Hepatitis C Virus) [Peptide 44]	0	0	0%	0%	–	–
45 (SLLAPGAKQNV; Hepatitis C Virus) [Peptide 45]	3	0	30%	0%	–	–
47 (LLCPAGHAV; Hepatitis C Virus) [Peptide 47]	2	1	20%	8%	–	–
52 (ILAGYGAGV; Hepatitis C Virus) [Peptide 52]	1	0	10%	0%	–	–
55 (GLQDCTMLV; Hepatitis C Virus) [Peptide 55]	1	2	10%	17%	–	–

Substance	Healthy donors (n = 10) Positive n [1]	HCV patients (n = 12) Positive n [1]	Healthy donors (n = 10) Positive % [1]	HCV patients (n = 12) Positive % [1]	Reactivity to peptide-specific IgG HD (n = 10) [2]	Reactivity to peptide-specific IgG Patients (n = 12) [2]
56 (ALAHGVRAL; Hepatitis C Virus) [Peptide 56]	1	0	10%	0%	–	–
57 (NLPGCSFSI; Hepatitis C Virus) [Peptide 57]	1	0	10%	0%	–	–
61 (HYRDVLKEM; Hepatitis C Virus) [Peptide 61]	1	3	10%	25%	–	–
62 (WFMWCLLLL; Hepatitis C Virus) [Peptide 62]	0	7	0%	58%	–	–
66 (QFKQKALGLL; Hepatitis C Virus) [Peptide 66]	0	3	0%	25%	–	–
AFTASITSPL [No. 35]	–	–	–	–	0	0
AFYGVWPLL [No. 63]	–	–	–	–	0	0
AYAAQGYKVL [No. 24]	–	–	–	–	0	2
AYALYGVWPL [No. 26]	–	–	–	–	0	2
AYMSKAHGI [No. 11]	–	–	–	–	0	2
AYSQQTRGL [No. 8]	–	–	–	–	0	0
DFKTWLQSKL [No. 36]	–	–	–	–	0	1
EFWESVFTGL [No. 31]	–	–	–	–	0	0
EYVLLLFLL [No. 4]	–	–	–	–	0	2
FFTEVDGVRL [No. 37]	–	–	–	–	0	1
GYGAGVAGAL [No. 23]	–	–	–	–	0	2
GYIPIVGAPL [No. 19]	–	–	–	–	0	1
HYKLFLARL [No. 9]	–	–	–	–	0	0
HYPCTVNFTI [No. 27]	–	–	–	–	0	2
HYRDVLKEM [No. 61]	–	–	–	–	1	3
